Results as given in US20240166652A1, “MODULATORS OF THE INTEGRATED STRESS PATHWAY” (Calico Life Sciences LLC, priority 2017, published 2024).

tested on: ATF4 luciferase reporter in HEK293T cells; experiment: ATF4-Luc assay (ATF4 luciferase reporter, tunicamycin-treated HEK293T cells); assay type: cell-based, human; settings: Homo sapiens, HEK-293T; HEK293T cells carrying the ATF4 luciferase reporter, 1 μg/mL tunicamycin, 7 hours

`O=C(COc1ccc(F)c(F)c1)NC12CCC(NC(=O)COc3cccc(C(F)(F)F)c3)(CC1)[C@@H](O)C2` [Compound 809, 2-(3,4-difluorophenoxy)-N-[(3S)-3-hydroxy-4-{2-[3-(trifluoromethyl)phenoxy]acetamido}bicyclo[2.2.2]octan-1-yl]acetamide] and `O=C(COc1ccc(F)c(F)c1)NC12CCC(NC(=O)COc3ccc(F)c(C(F)(F)F)c3)(CC1)[C@@H](O)C2` [Compound 829, 2-(3,4-difluorophenoxy)-N-[(3S)-4-{2-[4-fluoro-3-(trifluoromethyl)phenoxy]acetamido}-3-hydroxybicyclo[2.2.2]octan-1-yl]acetamide] cannot be ordered by EC50: under 10 nM for the first, under 10 nM for the second.

First: N[C@H](CC(=O)NC12CC(NC(=O)COc3ccc(Cl)c(F)c3)(C1)C2)Cc1ccccc1 [Compound 810, (3S)-3-amino-N-{3-[2-(4-chloro-3-fluorophenoxy)acetamido]bicyclo[1.1.1]pentan-1-yl}-4-phenylbutanamide]
Second: O=C(COc1ccc(Cl)c(F)c1)NC12CC(NC(=O)C(CCO)Oc3ccc(Cl)cc3)(C1)C2 (stereo not drawn) [Compound 827, N-{3-[2-(4-chloro-3-fluorophenoxy)acetamido]bicyclo[1.1.1]pentan-1-yl}-2-(4-chlorophenoxy)-4-hydroxybutanamide]
The EC50 of the first is higher: over 2000 nM for the first, 50 to 250 nM for the second. The second is the more potent here.

`O=C(COc1ccc(F)c(F)c1)NC12CCC(NC(=O)COc3ccc(F)cc3)(CC1)[C@@H](O)C2` [Compound 811, 2-(3,4-difluorophenoxy)-N-{(3S)-4-[2-(4-fluorophenoxy)acetamido]-3-hydroxybicyclo[2.2.2]octan-1-yl}acetamide] and `O=C(COc1ccc(F)c(F)c1)NC12CCC(NC(=O)COc3ccc(Cl)cc3)(CC1)[C@@H](O)C2` [Compound 813, 2-(4-chlorophenoxy)-N-{(2S)-4-[2-(3,4-difluorophenoxy)acetamido]-2-hydroxybicyclo[2.2.2]octan-1-yl}acetamide] cannot be ordered by EC50: under 10 nM for the first, under 10 nM for the second.

`O=C(COc1ccc(F)c(F)c1)NC12CCC(NC(=O)COc3ccc(F)c(OC(F)(F)F)c3)(CC1)[C@@H](O)C2` [Compound 812, 2-(3,4-difluorophenoxy)-N-[(3S)-4-{2-[4-fluoro-3-(trifluoromethoxy)phenoxy]acetamido}-3-hydroxybicyclo[2.2.2]octan-1-yl]acetamide] and `O=C(COc1ccc(F)c(OC(F)(F)F)c1)NC12CCC(NC(=O)COc3ccc(Cl)c(F)c3)(CC1)[C@@H](O)C2` [Compound 820, 2-(4-chloro-3-fluorophenoxy)-N-[(2S)-4-{2-[4-fluoro-3-(trifluoromethoxy)phenoxy]acetamido}-2-hydroxybicyclo[2.2.2]octan-1-yl]acetamide] cannot be ordered by EC50: under 10 nM for the first, under 10 nM for the second.

`Cc1cc(OCC(=O)NC23CCC(NC(=O)COc4ccc(Cl)c(F)c4)(CC2)[C@@H](O)C3)ccc1F` [Compound 814, 2-(4-chloro-3-fluorophenoxy)-N-{(2S)-4-[2-(4-fluoro-3-methylphenoxy)acetamido]-2-hydroxybicyclo[2.2.2]octan-1-yl}acetamide] and `Cc1cc(OCC(=O)NC23CCC(NC(=O)COc4ccc(F)c(F)c4)(CC2)[C@@H](O)C3)ccc1F` [Compound 815, 2-(3,4-difluorophenoxy)-N-{(2S)-4-[2-(4-fluoro-3-methylphenoxy)acetamido]-2-hydroxybicyclo[2.2.2]octan-1-yl}acetamide] cannot be ordered by EC50: under 10 nM for the first, under 10 nM for the second.

`Cc1cc(OCC(=O)NC23CCC(NC(=O)COc4ccc(Cl)cc4)(CC2)[C@@H](O)C3)ccc1F` [Compound 816, 2-(4-chlorophenoxy)-N-{(2S)-4-[2-(4-fluoro-3-methylphenoxy)acetamido]-2-hydroxybicyclo[2.2.2]octan-1-yl}acetamide] and `Cc1cc(OCC(=O)NC23CCC(NC(=O)COc4ccc(F)cc4)(CC2)[C@@H](O)C3)ccc1F` [Compound 817, 2-(4-fluoro-3-methylphenoxy)-N-{(3S)-4-[2-(4-fluorophenoxy)acetamido]-3-hydroxybicyclo[2.2.2]octan-1-yl}acetamide] cannot be ordered by EC50: under 10 nM for the first, under 10 nM for the second.

Compared with `CS(=O)(=O)c1cc(OCC(=O)NC23CCC(NC(=O)COc4ccc(F)c(F)c4)(CC2)[C@@H](O)C3)ccc1F` [Compound 818, 2-(3,4-difluorophenoxy)-N-[(2S)-4-{2-[4-fluoro-3-(methanesulfonyl)phenoxy]acetamido}-2-hydroxybicyclo[2.2.2]octan-1-yl]acetamide], `CS(=O)(=O)c1cc(OCC(=O)NC23CCC(NC(=O)COc4ccc(Cl)c(F)c4)(CC2)[C@@H](O)C3)ccc1F` [Compound 826, 2-(4-chloro-3-fluorophenoxy)-N-[(2S)-4-{2-[4-fluoro-3-(methanesulfonyl)phenoxy]acetamido}-2-hydroxybicyclo[2.2.2]octan-1-yl]acetamide] is lower in EC50: 250 to 500 nM for the first, 50 to 250 nM for the second.

Compared with `CS(=O)(=O)c1cc(OCC(=O)NC23CCC(NC(=O)COc4ccc(F)cc4)(CC2)[C@@H](O)C3)ccc1F` [Compound 819, 2-[4-fluoro-3-(methanesulfonyl)phenoxy]-N-{(3S)-4-[2-(4-fluorophenoxy)acetamido]-3-hydroxybicyclo[2.2.2]octan-1-yl}acetamide], `O=C(COc1ccc(F)cc1)NC12CCC(NC(=O)COc3ccc(F)c(C(F)(F)F)c3)(CC1)[C@@H](O)C2` [Compound 831, 2-(4-fluorophenoxy)-N-[(3S)-4-{2-[4-fluoro-3-(trifluoromethyl)phenoxy]acetamido}-3-hydroxybicyclo[2.2.2]octan-1-yl]acetamide] is lower in EC50: 500 to 2000 nM for the first, under 10 nM for the second.

`O=C(COc1ccc(C(F)(F)F)c(F)c1)NC12CCC(NC(=O)COc3ccc(C(F)(F)F)c(F)c3)(CC1)[C@@H](O)C2` [Compound 821, N,N′-[(2S)-2-hydroxybicyclo[2.2.2]octane-1,4-diyl]bis{2-[3-fluoro-4-(trifluoromethyl)phenoxy]acetamide}] and `O=C(COc1ccc(F)c(C(F)(F)F)c1)NC12CCC(NC(=O)COc3ccc(C(F)(F)F)c(F)c3)(CC1)[C@@H](O)C2` [Compound 822, 2-[3-fluoro-4-(trifluoromethyl)phenoxy]-N-[(2S)-4-{2-[4-fluoro-3-(trifluoromethyl)phenoxy]acetamido}-2-hydroxybicyclo[2.2.2]octan-1-yl]acetamide] cannot be ordered by EC50: under 10 nM for the first, under 10 nM for the second.

`O=C(COc1ccc(F)c(C(F)(F)F)c1)NC12CCC(NC(=O)COc3ccc(F)c(C(F)(F)F)c3)(CC1)[C@@H](O)C2` [Compound 823, N,N′-[(2S)-2-hydroxybicyclo[2.2.2]octane-1,4-diyl]bis{2-[4-fluoro-3-(trifluoromethyl)phenoxy]acetamide}] and `O=C(COc1ccc(Cl)c(F)c1)NC12CCC(NC(=O)COc3ccc(F)c(C(F)(F)F)c3)(CC1)[C@@H](O)C2` [Compound 828, 2-(4-chloro-3-fluorophenoxy)-N-[(3S)-4-{2-[4-fluoro-3-(trifluoromethyl)phenoxy]acetamido}-3-hydroxybicyclo[2.2.2]octan-1-yl]acetamide] cannot be ordered by EC50: under 10 nM for the first, under 10 nM for the second.

First: O=C(COc1cccc(C(F)(F)F)n1)NC12CCC(NC(=O)COc3ccc(Cl)c(F)c3)(CC1)[C@@H](O)C2 [Compound 824, 2-(4-chloro-3-fluorophenoxy)-N-[(2S)-2-hydroxy-4-(2-{[6-(trifluoromethyl)pyridin-2-yl]oxy}acetamido)bicyclo[2.2.2]octan-1-yl]acetamide]
Second: O=C(COc1cccc(C(F)(F)F)n1)NC12CCC(NC(=O)COc3ccc(Cl)cc3)(CC1)[C@@H](O)C2 [Compound 825, 2-(4-chlorophenoxy)-N-[(2S)-2-hydroxy-4-(2-{[6-(trifluoromethyl)pyridin-2-yl]oxy}acetamido)bicyclo[2.2.2]octan-1-yl]acetamide]
The EC50 of the first is lower: 10 to 50 nM for the first, 50 to 250 nM for the second. The first is the more potent here.

`O=C(COc1ccc(Cl)cc1)NC12CCC(NC(=O)COc3ccc(F)c(C(F)(F)F)c3)(CC1)[C@@H](O)C2` [Compound 830, 2-(4-chlorophenoxy)-N-[(3S)-4-{2-[4-fluoro-3-(trifluoromethyl)phenoxy]acetamido}-3-hydroxybicyclo[2.2.2]octan-1-yl]acetamide] and `O=C(COc1ccc(Cl)cc1)NC12CCC(NC(=O)COc3ccc(C(F)(F)F)c(F)c3)(CC1)[C@@H](O)C2` [Compound 834, 2-(4-chlorophenoxy)-N-[(3S)-4-{2-[3-fluoro-4-(trifluoromethyl)phenoxy]acetamido}-3-hydroxybicyclo[2.2.2]octan-1-yl]acetamide] cannot be ordered by EC50: under 10 nM for the first, under 10 nM for the second.

`O=C(COc1ccc(Cl)c(F)c1)NC12CCC(NC(=O)COc3ccc(C(F)(F)F)c(F)c3)(CC1)[C@@H](O)C2` [Compound 832, 2-(4-chloro-3-fluorophenoxy)-N-[(3S)-4-{2-[3-fluoro-4-(trifluoromethyl)phenoxy]acetamido}-3-hydroxybicyclo[2.2.2]octan-1-yl]acetamide] and `O=C(COc1ccc(F)c(F)c1)NC12CCC(NC(=O)COc3ccc(C(F)(F)F)c(F)c3)(CC1)[C@@H](O)C2` [Compound 833, 2-(3,4-difluorophenoxy)-N-[(3S)-4-{2-[3-fluoro-4-(trifluoromethyl)phenoxy]acetamido}-3-hydroxybicyclo[2.2.2]octan-1-yl]acetamide] cannot be ordered by EC50: under 10 nM for the first, under 10 nM for the second.

`O=C(COc1ccc(F)cc1)NC12CCC(NC(=O)COc3ccc(C(F)(F)F)c(F)c3)(CC1)[C@@H](O)C2` [Compound 835, 2-(4-fluorophenoxy)-N-[(3S)-4-{2-[3-fluoro-4-(trifluoromethyl)phenoxy]acetamido}-3-hydroxybicyclo[2.2.2]octan-1-yl]acetamide] and `O=C(COc1ccc(S(F)(F)(F)(F)F)nc1)NC12CCC(NC(=O)COc3ccc(Cl)c(F)c3)(CC1)[C@@H](O)C2` [Compound 838, 2-(4-chloro-3-fluorophenoxy)-N-[(2S)-2-hydroxy-4-(2-{[6-(pentafluoro-lambda^6-sulfanyl)pyridin-3-yl]oxy}acetamido)bicyclo[2.2.2]octan-1-yl]acetamide] cannot be ordered by EC50: under 10 nM for the first, under 10 nM for the second.

First: O=C(COc1ccc(Cl)cc1)NC12CC(NC(=O)COc3cccc(C(F)(F)F)n3)(C1)C2 [Compound 836, 2-(4-chlorophenoxy)-N-[3-(2-{[6-(trifluoromethyl)pyridin-2-yl]oxy}acetamido)bicyclo[1.1.1]pentan-1-yl]acetamide]
Second: O=C(COc1ccc(Cl)cc1)NC12CC(NC(=O)COc3ccc(F)c(F)c3)(C1)C2 [Compound 837, 2-(4-chlorophenoxy)-N-{3-[2-(3,4-difluorophenoxy)acetamido]bicyclo[1.1.1]pentan-1-yl}acetamide]
The EC50 of the first is higher: 250 to 500 nM for the first, under 10 nM for the second.
